Results reported in US10647719B2, “Bicyclic compounds as dual ATX/CA inhibitors” (Hoffmann-La Roche Inc., priority 2015, dated 2020).
pIC50: −log10 of the molar value. Where two headings read alike, the source gives them in different places.

Assays:
human ATX = human ATX (Homo sapiens (Human), UniProt Q13822); assay: Human ATX enzyme inhibition assay (fluorescence quenching, MR121 substrate); assay type: biochemical
Summary of the method: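 Human His-tagged ATX (30 nM final) preincubated 15 min at 30 °C with serially diluted compounds in Tris buffer pH 8.0 with Ca2+, Mg2+ and 0.01% Triton X-100. MR121/tryptophan-labelled substrate analogue (1 μM final) then added for 15 min at 30 °C; cleavage read by fluorescence dequenching.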

[1] = target: Human carbonic anhydrase II (hCA-II) (Homo sapiens (Human), UniProt P00918); assay: Human carbonic anhydrase-II inhibition assay (absorbance, 4-nitrophenyl acetate substrate); assay type: biochemical

pIC50 (human ATX) | pIC50 [1] | pIC50 (human ATX; human His-tagged ATX 30 nM, MR121 substrate 1 μM, 30° C., read-out: ATX IC50) | pIC50 ([1]; hCA II 8 nM, 4-NPA 2.5 mM, absorbance 340 nm, room temperature 1 hour, read-out: CA-II IC50) | SMILES
8.30 | 7.92 |  |  | NS(=O)(=O)c1ccc(C(=O)N2CC3=C(CN(C(=O)CCc4ccc(OC(F)(F)F)cc4)C3)C2)nc1 [Example 3.01, 6-[2-[3-[4-(trifluoromethoxy)phenyl]propanoyl]-1,3,4,6-tetrahydropyrrolo[3,4-c]pyrrole-5-carbonyl]pyridine-3-sulfonamide]
 |  | 8.22 | 7.89 | CC(C)(C)C(=O)Nc1cc(Cl)cnc1COC(=O)N1CC2=C(C1)CN(C(=O)c1ccc(S(N)(=O)=O)cc1F)C2 [Example 1.12, [5-chloro-3-(2,2-dimethylpropanoylamino)pyridin-2-yl]methyl 2-(2-fluoro-4-sulfamoylbenzoyl)-1,3,4,6-tetrahydropyrrolo[3,4-c]pyrrole-5-carboxylate]
